Experimental data reported in patent publication US9493446B2, “Orexin receptor antagonists which are [ortho bi-(hetero-)aryl]-[2-(meta bi-(hetero-)aryl)-pyrrolidin-1-yl]-methanone derivatives” (Actelion Pharmaceuticals Ltd, priority 2012, dated 2016).
Like-named read-outs stand apart in the source and are kept apart here.

Experiments:
[1] = biological target: orexin-1 (Homo sapiens (Human), UniProt O43613); test: Intracellular calcium measurement (FLIPR), CHO cells expressing human orexin-1 receptor, 3 nM orexin-A; type: cell-based; conditions: CHO cells expressing human orexin-1 receptor, FLIPR, 3 nM orexin-A; geometric mean if determined several times; read-out: IC50 OX1
In short: (§1)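 Antagonist is added 120 min before agonist. Fluo-4 AM-loaded CHO cells carry human orexin-1 or orexin-2 receptor, and calcium is read by FLIPR.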

[2] = biological target: human orexin-2 receptor (Homo sapiens (Human), UniProt O43614); test: Intracellular calcium measurement (FLIPR), CHO cells expressing human orexin-2 receptor, 3 nM orexin-A; type: cell-based; conditions: read-out: IC50 OX2
In short: as §1

[3] = CHO cells expressing human orexin-2 receptor, FLIPR, 3 nM orexin-A, geometric mean if determined several times

human orexin-2 receptor, sequence (O43614 whole entry): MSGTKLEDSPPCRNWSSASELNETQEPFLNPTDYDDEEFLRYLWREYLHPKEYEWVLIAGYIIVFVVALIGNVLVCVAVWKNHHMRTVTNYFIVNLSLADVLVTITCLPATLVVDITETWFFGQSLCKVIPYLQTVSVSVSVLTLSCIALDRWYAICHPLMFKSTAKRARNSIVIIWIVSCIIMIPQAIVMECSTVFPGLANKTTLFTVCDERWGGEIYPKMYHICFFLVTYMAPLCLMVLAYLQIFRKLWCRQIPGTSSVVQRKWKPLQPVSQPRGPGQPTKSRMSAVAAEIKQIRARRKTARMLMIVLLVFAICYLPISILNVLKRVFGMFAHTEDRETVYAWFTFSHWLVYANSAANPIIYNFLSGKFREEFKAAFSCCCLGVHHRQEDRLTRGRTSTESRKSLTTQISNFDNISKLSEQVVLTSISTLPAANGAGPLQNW
orexin-1, sequence (O43613 whole entry): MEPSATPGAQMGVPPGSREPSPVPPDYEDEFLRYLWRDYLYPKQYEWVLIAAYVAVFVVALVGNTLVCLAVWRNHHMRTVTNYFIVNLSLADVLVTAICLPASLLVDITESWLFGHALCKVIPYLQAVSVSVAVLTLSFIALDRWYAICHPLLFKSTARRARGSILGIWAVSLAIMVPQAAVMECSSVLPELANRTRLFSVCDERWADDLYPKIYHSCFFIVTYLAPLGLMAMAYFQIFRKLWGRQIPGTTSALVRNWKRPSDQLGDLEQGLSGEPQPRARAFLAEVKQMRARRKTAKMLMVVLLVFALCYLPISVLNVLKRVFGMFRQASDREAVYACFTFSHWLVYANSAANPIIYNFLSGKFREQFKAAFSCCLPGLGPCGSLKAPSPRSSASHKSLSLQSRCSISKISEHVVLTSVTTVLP

With `O=C(c1ccccc1-n1nccn1)N1CCC[C@H]1c1nc(-c2ccccc2OC(F)(F)F)no1` [compound 141, (2-[1,2,3]Triazol-2-yl-phenyl)-{(S)-2-[3-(2-trifluoromethoxy-phenyl)-[1,2,4]oxadiazol-5-yl]-pyrrolidin-1-yl}-methanone] as the compound, how does the IC50 [1] read?
Its IC50 is 59 nM.

And the IC50 [2, 3]?
The IC50 was 29 nM.

With `O=C(c1ncsc1-c1cccc(Cl)c1)N1CCC[C@H]1c1nc(-c2ccccc2OC(F)(F)F)no1` [compound 142] as the compound, how does the IC50 [1] read?
Its IC50 is 123 nM.

And the IC50 [2, 3]?
The IC50 was 80 nM.

How did the IC50 [1] turn out when `O=C(c1cc(Cl)ccc1-n1nccn1)N1CCC[C@H]1c1nc(-c2ccccc2OC(F)(F)F)no1` [compound 143] was run?
The IC50 was 47 nM.

And the IC50 [2]?
Its IC50 is 34 nM.

Which results are given for `COc1ccc(-n2nccn2)c(C(=O)N2CCC[C@H]2c2nc(-c3ccccc3OC(F)(F)F)no2)c1F` [compound 144, (2-Fluoro-3-methoxy-6-[1,2,3]triazol-2-yl-phenyl)-{(S)-2-[3-(2-trifluoromethoxy-phenyl)-[1,2,4]oxadiazol-5-yl]-pyrrolidin-1-yl}-methanone]?
IC50 [1]: 26 nM; IC50 [2, 3]: 83 nM

What does the source list for `Cc1ccc(-n2nccn2)c(C(=O)N2CCC[C@H]2c2nc(-c3ccccc3OC(F)(F)F)no2)c1F` [compound 145, (2-Fluoro-3-methyl-6-[1,2,3]triazol-2-yl-phenyl)-{(S)-2-[3-(2-trifluoromethoxy-phenyl)-[1,2,4]oxadiazol-5-yl]-pyrrolidin-1-yl}-methanone]?
IC50 [1]: 19 nM; IC50 [2, 3]: 15 nM

For `Cc1ccc(C(=O)N2CCC[C@H]2c2nc(-c3ccccc3OC(F)(F)F)no2)c(-n2nccn2)c1` [compound 147, (4-Methyl-2-[1,2,3]triazol-2-yl-phenyl)-{(S)-2-[3-(2-trifluoromethoxy-phenyl)-[1,2,4]oxadiazol-5-yl]-pyrrolidin-1-yl}-methanone], which IC50 [1] is on record?
Its IC50 is 31 nM.

What about the IC50 [2, 3] of the same compound?
Its IC50 is 15 nM.

Which IC50 [1] does the source give for `O=C(c1cc(C(F)(F)F)ccc1-n1nccn1)N1CCC[C@H]1c1nc(-c2ccccc2OC(F)(F)F)no1` [compound 148, (2-[1,2,3]Triazol-2-yl-5-trifluoromethyl-phenyl)-{(S)-2-[3-(2-trifluoromethoxy-phenyl)-[1,2,4]oxadiazol-5-yl]-pyrrolidin-1-yl}-methanone] here?
Its IC50 is 241 nM.

What about the IC50 [2, 3] of the same compound?
The IC50 was 285 nM.

Which results are given for `Cc1cccc(-n2nccn2)c1C(=O)N1CCC[C@H]1c1nc(-c2ccccc2OC(F)(F)F)no1` [compound 149, (2-Methyl-6-[1,2,3]triazol-2-yl-phenyl)-{(S)-2-[3-(2-trifluoromethoxy-phenyl)-[1,2,4]oxadiazol-5-yl]-pyrrolidin-1-yl}-methanone]?
IC50 [1]: 184 nM; IC50 [2, 3]: 85 nM

How did the IC50 [1] turn out when `O=C(c1cc(OC(F)(F)F)ccc1-n1nccn1)N1CCC[C@H]1c1nc(-c2ccccc2OC(F)(F)F)no1` [compound 150, (2-[1,2,3]Triazol-2-yl-5-trifluoromethoxy-phenyl)-{(S)-2-[3-(2-trifluoromethoxy-phenyl)-[1,2,4]oxadiazol-5-yl]-pyrrolidin-1-yl}-methanone] was run?
Its IC50 is 457 nM.

What about the IC50 [2, 3] of the same compound?
The IC50 was 341 nM.

How did the IC50 [1] turn out when `COc1ccc(-n2nccn2)c(C(=O)N2CCC[C@H]2c2nc(-c3ccccc3OC(F)(F)F)no2)c1` [compound 151, (5-Methoxy-2-[1,2,3]triazol-2-yl-phenyl)-{(S)-2-[3-(2-trifluoromethoxy-phenyl)-[1,2,4]oxadiazol-5-yl]-pyrrolidin-1-yl}-methanone] was run?
The IC50 was 27 nM.

What about the IC50 [2, 3] of the same compound?
The IC50 was 27 nM.

Which results are given for `COc1ccc(-c2ccccc2)c(C(=O)N2CCC[C@H]2c2nc(-c3ccccc3OC(F)(F)F)no2)c1` [compound 152, (4-Methoxy-biphenyl-2-yl)-{(S)-2-[3-(2-trifluoromethoxy-phenyl)-[1,2,4]oxadiazol-5-yl]-pyrrolidin-1-yl}-methanone]?
IC50 [1]: 9 nM; IC50 [2, 3]: 35 nM

For `O=C(c1[nH]cnc1-c1ccccc1)N1CCC[C@H]1c1nc(-c2ccccc2OC(F)(F)F)no1` [compound 153, (5-Phenyl-3H-imidazol-4-yl)-{(S)-2-[3-(2-trifluoromethoxy-phenyl)-[1,2,4]oxadiazol-5-yl]-pyrrolidin-1-yl}-methanone], which IC50 [1] is on record?
Its IC50 is 781 nM.

What about the IC50 [2, 3] of the same compound?
Its IC50 is 460 nM.

What does the source list for `O=C(c1cc(F)ccc1-n1nccn1)N1CCC[C@H]1c1nc(-c2ccccc2OC(F)(F)F)no1` [compound 155, (5-Fluoro-2-[1,2,3]triazol-2-yl-phenyl)-{(S)-2-[3-(2-trifluoromethoxy-phenyl)-[1,2,4]oxadiazol-5-yl]-pyrrolidin-1-yl}-methanone]?
IC50 [1]: 174 nM; IC50 [2, 3]: 43 nM

What does the source list for `COc1ccc(-n2cccn2)c(C(=O)N2CCC[C@H]2c2nc(-c3ccccc3OC(F)(F)F)no2)c1` [compound 157, (5-Methoxy-2-pyrazol-1-yl-phenyl)-{(S)-2-[3-(2-trifluoromethoxy-phenyl)-[1,2,4]oxadiazol-5-yl]-pyrrolidin-1-yl}-methanone]?
IC50 [1]: 99 nM; IC50 [2, 3]: 73 nM

How did the IC50 [1] turn out when `Cc1ccc(-n2nccn2)c(C(=O)N2CCC[C@H]2c2nc(-c3ccccc3OC(F)(F)F)no2)n1` [compound 159, (6-Methyl-3-[1,2,3]triazol-2-yl-pyridin-2-yl)-{(S)-2-[3-(2-trifluoromethoxy-phenyl)-[1,2,4]oxadiazol-5-yl]-pyrrolidin-1-yl}-methanone] was run?
The IC50 was 88 nM.

And the IC50 [2, 3]?
The IC50 was 71 nM.

How did the IC50 [1] turn out when `Cc1ccc(-n2cccn2)c(C(=O)N2CCC[C@H]2c2nc(-c3ccccc3OC(F)(F)F)no2)n1` [compound 160, (6-Methyl-3-pyrazol-1-yl-pyridin-2-yl)-{(S)-2-[3-(2-trifluoromethoxy-phenyl)-[1,2,4]oxadiazol-5-yl]-pyrrolidin-1-yl}-methanone] was run?
The IC50 was 238 nM.

What about the IC50 [2, 3] of the same compound?
The IC50 was 212 nM.

With `O=C(c1cc(F)c(F)cc1-n1nccn1)N1CCC[C@H]1c1nc(-c2ccccc2OC(F)(F)F)no1` [compound 161, (4,5-Difluoro-2-[1,2,3]triazol-2-yl-phenyl)-{(S)-2-[3-(2-trifluoromethoxy-phenyl)-[1,2,4]oxadiazol-5-yl]-pyrrolidin-1-yl}-methanone] as the compound, how does the IC50 [1] read?
The IC50 was 751 nM.

And the IC50 [2, 3]?
Its IC50 is 204 nM.

With `O=C(c1ccc(F)cc1-n1cccn1)N1CCC[C@H]1c1nc(-c2ccccc2OC(F)(F)F)no1` [compound 162, (4-Fluoro-2-pyrazol-1-yl-phenyl)-{(S)-2-[3-(2-trifluoromethoxy-phenyl)-[1,2,4]oxadiazol-5-yl]-pyrrolidin-1-yl}-methanone] as the compound, how does the IC50 [1] read?
The IC50 was 818 nM.

And the IC50 [2, 3]?
The IC50 was 347 nM.

How did the IC50 [1] turn out when `O=C(c1ccc(F)cc1-n1nccn1)N1CCC[C@H]1c1nc(-c2ccccc2OC(F)(F)F)no1` [compound 163, (4-Fluoro-2-[1,2,3]triazol-2-yl-phenyl)-{(S)-2-[3-(2-trifluoromethoxy-phenyl)-[1,2,4]oxadiazol-5-yl]-pyrrolidin-1-yl}-methanone] was run?
The IC50 was 495 nM.

And the IC50 [2, 3]?
Its IC50 is 87 nM.

What does the source list for `O=C(c1cccc(F)c1-n1cccn1)N1CCC[C@H]1c1nc(-c2ccccc2OC(F)(F)F)no1` [compound 164, (3-Fluoro-2-pyrazol-1-yl-phenyl)-{(S)-2-[3-(2-trifluoromethoxy-phenyl)-[1,2,4]oxadiazol-5-yl]-pyrrolidin-1-yl}-methanone]?
IC50 [1]: 333 nM; IC50 [2, 3]: 171 nM

For `O=C(c1cccc(F)c1-n1nccn1)N1CCC[C@H]1c1nc(-c2ccccc2OC(F)(F)F)no1` [compound 165, (3-Fluoro-2-[1,2,3]triazol-2-yl-phenyl)-{(S)-2-[3-(2-trifluoromethoxy-phenyl)-[1,2,4]oxadiazol-5-yl]-pyrrolidin-1-yl}-methanone], which IC50 [1] is on record?
Its IC50 is 286 nM.

And the IC50 [2, 3]?
Its IC50 is 79 nM.
